Our source for the viability, T/C and IC50 values is PubChem BioAssay AID1845201 (Molecular Pharmacology Branch, DTP, NCI, 2023).

The assay deals with COR L88 complex tumor spheroid viability. Briefly: Anticancer human tumor COR L88 cell line growth inhibition.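 As to all read-outs here: compound exposure lasted 7 days before viability readout.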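 As to viability, T/C: percent of DMSO vehicle-treated spheroids = 100%.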 The following applies: for viability, T/C: stronger effect = lower value. The method in brief:
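Complex spheroids of malignant cells with endothelial cells and mesenchymal stem cells; agents alone or combined, from near clinical Cmax (or 10 microM if unknown) down in half-log steps, 0.25% DMSO final.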

Where [1] appears, read: curve of first compound, second compound 1 µM.
The mark [2] stands for this setting: curve of first compound, second compound 3.16 µM.
Setting [3] is: curve of first compound, second compound 10 µM.
Setting [4] is: curve of first compound, second compound 31.6 µM.
Where [5] appears, read: curve of first compound, second compound 100 µM.

Several values for one entry are separate records, joined by “and”; a condition that tells them apart may be missing. Equal entries are not always repeated.

What is called viability, T/C is the ratio of treated to control. The IC50 is the concentration that gives 50% inhibition. On to `Cn1ncnc1[C@H]1c2n[nH]c(=O)c3cc(F)cc(c23)N[C@@H]1c1ccc(F)cc1`, for which the viability, T/C reads like this: (compound 0.00949 µM) 88.5% and 92.9% and 87.1%; (compound 0.03 µM) 79.6% and 66.2% and 79.5%; (compound 0.0949 µM) 66.9% and 62.7% and 56%; (compound 0.3 µM) 59.6% and 54.9% and 49.2%; (compound 0.949 µM) 43.3% and 45% and 39.5%; (compound 3 µM) 43.6% and 37.6% and 40.6%. For the same molecule, the IC50 (curve of compound) is 0.665 µM and 0.353 µM and 0.293 µM.

Take `O=C(c1cc(Cc2n[nH]c(=O)c3ccccc23)ccc1F)N1CCN(C(=O)C2CC2)CC1` + Cn1nnc2c(C(N)=O)ncn2c1=O: the IC50 runs as follows: under setting [1], 21.3 µM; under setting [2], 20.9 µM; under setting [3], 9.36 µM; under setting [4], 3.7 µM; under setting [5], 0.263 µM. In addition, the viability, T/C (second compound 1 µM, first compound 0.0949 µM) was 92.8%; the viability, T/C (second compound 1 µM, first compound 0.3 µM) is 92.8%; the viability, T/C (second compound 1 µM, first compound 0.949 µM) was 97.3%; the viability, T/C (second compound 1 µM, first compound 3 µM) was 78.4%; the viability, T/C (second compound 1 µM, first compound 9.49 µM) was 61%; the viability, T/C (second compound 1 µM, first compound 30 µM) is 45.4%. Moreover, the viability, T/C is 102% (second compound 3.16 µM, first compound 0.0949 µM); 93.6% (second compound 3.16 µM, first compound 0.3 µM); 91.8% (second compound 3.16 µM, first compound 0.949 µM); 86.5% (second compound 3.16 µM, first compound 3 µM); 54.7% (second compound 3.16 µM, first compound 9.49 µM); 47.9% (second compound 3.16 µM, first compound 30 µM). Besides, the viability, T/C is 72.6% (second compound 10 µM, first compound 0.0949 µM); 83.1% (second compound 10 µM, first compound 0.3 µM); 75.5% (second compound 10 µM, first compound 0.949 µM); 64.2% (second compound 10 µM, first compound 3 µM); 50.6% (second compound 10 µM, first compound 9.49 µM); 45.1% (second compound 10 µM, first compound 30 µM). For the same molecule, the viability, T/C runs as follows: (second compound 31.6 µM, first compound 0.0949 µM) 61.8%; (second compound 31.6 µM, first compound 0.3 µM) 58.1%; (second compound 31.6 µM, first compound 0.949 µM) 57.5%; (second compound 31.6 µM, first compound 3 µM) 49.5%; (second compound 31.6 µM, first compound 9.49 µM) 45.5%; (second compound 31.6 µM, first compound 30 µM) 41.2%. Further, the viability, T/C runs as follows: (second compound 100 µM, first compound 0.0949 µM) 53.9%; (second compound 100 µM, first compound 0.3 µM) 48.4%; (second compound 100 µM, first compound 0.949 µM) 46.5%; (second compound 100 µM, first compound 3 µM) 43.7%; (second compound 100 µM, first compound 9.49 µM) 39%; (second compound 100 µM, first compound 30 µM) 37%.

Consider `[2H]c1nc(C)nc([2H])c1-c1cc(NC[C@@H](C)c2cccc3c(C(=O)NC)ccnc23)ncn1`, for which the viability, T/C runs as follows: (compound 0.0316 µM) 101% and 94.7% and 105%; (compound 0.1 µM) 99.9% and 96.5% and 98.1%; (compound 0.316 µM) 109% and 101% and 102%; (compound 1 µM) 88.5% and 106% and 102%; (compound 3.16 µM) 92.1% and 95.2% and 96.4%; (compound 10 µM) 91.8% and 97.2% and 103%. In addition, where the note is “curve of compound”, the IC50 was more than 10 µM.

Consider `[2H]c1nc(C)nc([2H])c1-c1cc(NC[C@@H](C)c2cccc3c(C(=O)NC)ccnc23)ncn1` + Cn1nnc2c(C(N)=O)ncn2c1=O, for which the IC50 is, setting by setting: under setting [1], more than 10 µM; under setting [2], more than 10 µM; under setting [3], more than 10 µM; under setting [4], more than 10 µM; under setting [5], more than 10 µM. For the same molecule, the viability, T/C runs as follows: (second compound 1 µM, first compound 0.0316 µM) 97.1%; (second compound 1 µM, first compound 0.1 µM) 98.5%; (second compound 1 µM, first compound 0.316 µM) 89.8%; (second compound 1 µM, first compound 1 µM) 93.3%; (second compound 1 µM, first compound 3.16 µM) 96%; (second compound 1 µM, first compound 10 µM) 97%. The viability, T/C was 94.5% (second compound 3.16 µM, first compound 0.0316 µM); 95.3% (second compound 3.16 µM, first compound 0.1 µM); 105% (second compound 3.16 µM, first compound 0.316 µM); 98.6% (second compound 3.16 µM, first compound 1 µM); 102% (second compound 3.16 µM, first compound 3.16 µM); 103% (second compound 3.16 µM, first compound 10 µM). The viability, T/C (second compound 10 µM, first compound 0.0316 µM) is 92.2%; the viability, T/C (second compound 10 µM, first compound 0.1 µM) was 93.3%; the viability, T/C (second compound 10 µM, first compound 0.316 µM) was 97.7%; the viability, T/C (second compound 10 µM, first compound 1 µM) is 88.7%; the viability, T/C (second compound 10 µM, first compound 3.16 µM) is 88.9%; the viability, T/C (second compound 10 µM, first compound 10 µM) is 98.7%. Also, the viability, T/C is 80% (second compound 31.6 µM, first compound 0.0316 µM); 85.6% (second compound 31.6 µM, first compound 0.1 µM); 75.9% (second compound 31.6 µM, first compound 0.316 µM); 82.4% (second compound 31.6 µM, first compound 1 µM); 82.2% (second compound 31.6 µM, first compound 3.16 µM); 75.8% (second compound 31.6 µM, first compound 10 µM). For the same molecule, the viability, T/C is 66% (second compound 100 µM, first compound 0.0316 µM); 66.6% (second compound 100 µM, first compound 0.1 µM); 63.7% (second compound 100 µM, first compound 0.316 µM); 69.5% (second compound 100 µM, first compound 1 µM); 64.2% (second compound 100 µM, first compound 3.16 µM); 65.8% (second compound 100 µM, first compound 10 µM).
